Results reported in ChEMBL document CHEMBL1147993, “Inhibitory effect of obovatal on the migration and invasion of HT1080 cells via the inhibition of MMP-2” (Bioorg Med Chem, 2007).
Calls of active or inactive are those of the source. The rule behind the calls is not given here.

Assays:
HT-1080 [1] = test: Reduction of MMP2 protein expression in HT1080 cells at 20 uM ny Western blot; format: functional, Homo sapiens; set-up: scale not given: the % may be the effect or the level left
HT-1080 [2] = test: Reduction of MMP2 mRNA expression in HT1080 cells at 20 uM by RT-PCR; format: functional, Homo sapiens; set-up: scale not given: the % may be the effect or the level left
HT-1080 [3] = test: Inhibition of invasion of HT1080 cells at 20 uM after 24 hrs by Matrigel invasion assay relative to control; format: functional; conditions: Homo sapiens, HT-1080, 24 h
[4] = target: T1, 72 kDa type IV collagenase (Homo sapiens, UniProt P08253); test: Inhibition of MMP2 in HT1080 cells at 15 uM by gelatin zymography assay; format: cell-based; conditions: HT-1080
Target sequence in this assay (P08253 110-660 limits assumed): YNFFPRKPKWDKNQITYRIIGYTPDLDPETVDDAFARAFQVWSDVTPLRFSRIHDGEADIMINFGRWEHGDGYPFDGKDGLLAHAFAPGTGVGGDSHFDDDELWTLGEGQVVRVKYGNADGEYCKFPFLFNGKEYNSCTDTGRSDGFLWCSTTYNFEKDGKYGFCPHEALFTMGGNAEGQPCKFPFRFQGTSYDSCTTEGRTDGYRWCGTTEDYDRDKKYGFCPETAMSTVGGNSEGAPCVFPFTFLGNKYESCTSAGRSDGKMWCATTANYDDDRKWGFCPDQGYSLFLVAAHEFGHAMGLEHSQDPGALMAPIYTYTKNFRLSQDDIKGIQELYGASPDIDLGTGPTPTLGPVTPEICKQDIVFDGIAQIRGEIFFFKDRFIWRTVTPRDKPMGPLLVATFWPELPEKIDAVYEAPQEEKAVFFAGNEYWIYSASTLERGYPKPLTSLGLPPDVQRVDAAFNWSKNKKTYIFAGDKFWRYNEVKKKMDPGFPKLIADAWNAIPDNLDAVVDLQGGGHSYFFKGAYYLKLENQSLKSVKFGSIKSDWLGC

HT-1080 [5] = test: Inhibition of migration of HT1080 cells at 20 uM by wound healing assay; format: functional, cell-based; conditions: Homo sapiens
[6] = target: T1, 72 kDa type IV collagenase; test: Inhibition of MMP2 expressed in insect cells
Target sequence in this assay (P08253 whole entry): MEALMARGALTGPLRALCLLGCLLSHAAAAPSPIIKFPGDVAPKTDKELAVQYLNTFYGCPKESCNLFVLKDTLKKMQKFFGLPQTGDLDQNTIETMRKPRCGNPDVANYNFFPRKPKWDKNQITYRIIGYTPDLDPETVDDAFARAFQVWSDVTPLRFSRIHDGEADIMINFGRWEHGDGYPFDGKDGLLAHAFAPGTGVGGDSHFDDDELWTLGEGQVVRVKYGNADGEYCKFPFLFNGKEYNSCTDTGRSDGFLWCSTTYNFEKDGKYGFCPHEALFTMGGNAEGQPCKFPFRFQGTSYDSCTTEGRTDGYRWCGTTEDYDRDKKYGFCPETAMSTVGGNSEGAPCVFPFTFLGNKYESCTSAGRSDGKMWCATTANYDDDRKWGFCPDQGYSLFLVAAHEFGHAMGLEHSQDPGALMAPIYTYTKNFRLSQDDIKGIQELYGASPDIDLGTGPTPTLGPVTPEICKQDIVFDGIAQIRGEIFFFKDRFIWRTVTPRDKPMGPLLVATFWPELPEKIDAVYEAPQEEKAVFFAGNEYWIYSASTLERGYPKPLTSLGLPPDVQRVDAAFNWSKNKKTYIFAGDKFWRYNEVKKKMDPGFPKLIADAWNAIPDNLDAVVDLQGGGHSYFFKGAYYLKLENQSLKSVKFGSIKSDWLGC

HFF = test: Effect on growth of HFF cells after 48 hrs by WST1 reduction assay; format: cell-based; conditions: human
HCT-116 = test: Growth inhibition of HCT116 cells up to 50 uM after 48 hrs by WST1 reduction assay; format: functional, cell-based; conditions: Homo sapiens

With `C=CCc1ccc(Oc2cc(/C=C/C=O)cc(O)c2O)cc1` [OBOVATAL] the Activity (HT-1080 [1]) was 70%, the Activity (HT-1080 [2]) was 70% and the inhibition at 20 µM (HT-1080 [3]) was 70%. For the same compound, the Activity [4] was “Active”, the Activity (HT-1080 [5]) was “Active” and the IC50 [6] was 800 nM. The Activity (HFF) was “Non-toxic” and the Activity (HCT-116) was “Active”.
